Results published in US20180263985A1, “MODULATORS OF TOLL-LIKE RECEPTORS FOR THE TREATMENT OF HIV” (Gilead Sciences, Inc., priority 2015, published 2018).

System: PBMC cultures from HIV-1 infected subjects on cART
Assay: Induced cytokines and chemokines in PBMC cultures, multiplexed xMAP Luminex, geometric mean values
Format: cell-based, human
Conditions: for GRO-α Fold / Granzyme B Fold / I-TAC Fold / IFN-α Fold / IFN-γ Fold / IL-1RA Fold / IL-1β Fold / IL-6 Fold / IL-8 Fold / IL-10 Fold / IL-18 Fold / IL-23 Fold / IP-10 Fold / MCP-1 Fold / MIP-1α Fold / MIP-1β Fold / MIP-3α Fold / MMP-1 Fold / TNF-α Fold / IL-12p70 Fold: day 2, 4 subjects
Protocol: To further characterize the immune modulatory effect of TLR8 agonists in cells from HIV-infected subjects, the production of secreted cytokines and chemokines was measured in PBMCs from 4 HIV-infected subjects on suppressive cART (anonymized participant IDs 180-183). PBMCs were purified, as described in Example 121, and immediately added to tissue culture plates pre-equilibrated at 37° C. with media containing DMSO (vehicle control) or with the TLR8 modulating compound Example 15 at concentrations ranging from 1.0 nM to 10.0 μM. On day 2 after treatment, cell-free culture supernatants were collected and frozen at −80 C for subsequent analysis. Frozen supernatants were thawed at room temperature, and the indicated cytokines and chemokines were quantified with a custom multiplexed xMAP Luminex® assay following the manufacturer's instructions (Thermo Fisher Scientific Inc., Grand Island, N.Y., custom-designed kit).
Data are expressed as geometric mean cytokine values (pg/ml) obtained from 4 subjects' PBMCs. Geometric mean fold-activation from three independent incubation samples for each condition. Fold (fold-activation) is calculated as a ratio of the concentration of cytokine detected in cell culture supernatants from agonist treated samples relative to DMSO treated samples

[1] = 1.0 nM to 10.0 μM, not induced >2-fold

SMILES: CCCC[C@H](CO)Nc1nc(N)nc2cccnc12 [Example 15]
- IFN-ω induction compared to DMSO control [1]: ≤ 2 fold
- IL-2 induction compared to DMSO control [1]: ≤ 2 fold
- IL-4 induction compared to DMSO control [1]: ≤ 2 fold
- IL-5 induction compared to DMSO control [1]: ≤ 2 fold
- IL-7 induction compared to DMSO control [1]: ≤ 2 fold
- IL-15 induction compared to DMSO control [1]: ≤ 2 fold
- IL-17A induction compared to DMSO control [1]: ≤ 2 fold
- IL-21 induction compared to DMSO control [1]: ≤ 2 fold
- IL-27 induction compared to DMSO control [1]: ≤ 2 fold
- IL-29 induction compared to DMSO control [1]: ≤ 2 fold
- GRO-α Fold (1 nM vs DMSO): 1 fold
- Granzyme B Fold (1 nM vs DMSO): <1 fold
- I-TAC Fold (1 nM vs DMSO): 2 fold
- IFN-α Fold (1 nM vs DMSO): 2 fold
- IFN-γ Fold (1 nM vs DMSO): 2 fold
- IL-1RA Fold (1 nM vs DMSO): 3 fold
- IL-1β Fold (1 nM vs DMSO): 2 fold
- IL-6 Fold (1 nM vs DMSO): 1 fold
- IL-8 Fold (1 nM vs DMSO): 2 fold
- IL-10 Fold (1 nM vs DMSO): 1 fold
- IL-18 Fold (1 nM vs DMSO): 1 fold
- IL-23 Fold (1 nM vs DMSO): 2 fold
- IP-10 Fold (1 nM vs DMSO): 3 fold
- MCP-1 Fold (1 nM vs DMSO): 3 fold
- MIP-1α Fold (1 nM vs DMSO): 5 fold
- MIP-1β Fold (1 nM vs DMSO): 2 fold
- MIP-3α Fold (1 nM vs DMSO): 1 fold
- MMP-1 Fold (1 nM vs DMSO): 1 fold
- GRO-α Fold (10 nM vs DMSO): 1 fold
- Granzyme B Fold (10 nM vs DMSO): <1 fold
- I-TAC Fold (10 nM vs DMSO): 1 fold
- IFN-α Fold (10 nM vs DMSO): 2 fold
- IFN-γ Fold (10 nM vs DMSO): 2 fold
- IL-1RA Fold (10 nM vs DMSO): 1 fold
- IL-1β Fold (10 nM vs DMSO): 1 fold
- IL-6 Fold (10 nM vs DMSO): 1 fold
- IL-8 Fold (10 nM vs DMSO): 1 fold
- IL-10 Fold (10 nM vs DMSO): 1 fold
- IL-18 Fold (10 nM vs DMSO): 2 fold
- IL-23 Fold (10 nM vs DMSO): 1 fold
- IP-10 Fold (10 nM vs DMSO): 1 fold
- MCP-1 Fold (10 nM vs DMSO): 1 fold
- MIP-1α Fold (10 nM vs DMSO): 1 fold
- MIP-1β Fold (10 nM vs DMSO): 1 fold
- MIP-3α Fold (10 nM vs DMSO): 1 fold
- MMP-1 Fold (10 nM vs DMSO): 1 fold
- TNF-α Fold (10 nM vs DMSO): 2 fold
- GRO-α Fold (100 nM vs DMSO): 20 fold
- Granzyme B Fold (100 nM vs DMSO): <1 fold
- I-TAC Fold (100 nM vs DMSO): 1 fold
- IFN-α Fold (100 nM vs DMSO): 1 fold
- IFN-γ Fold (100 nM vs DMSO): 2 fold
- IL-1RA Fold (100 nM vs DMSO): 12 fold
- IL-1β Fold (100 nM vs DMSO): 45 fold
- IL-6 Fold (100 nM vs DMSO): 57 fold
- IL-8 Fold (100 nM vs DMSO): 8 fold
- IL-10 Fold (100 nM vs DMSO): 145 fold
- IL-12p70 Fold (100 nM vs DMSO): 2 fold
- IL-18 Fold (100 nM vs DMSO): 1 fold
- IL-23 Fold (100 nM vs DMSO): 2 fold
- IP-10 Fold (100 nM vs DMSO): 1 fold
- MCP-1 Fold (100 nM vs DMSO): 33 fold
- MIP-1α Fold (100 nM vs DMSO): 3 fold
- MIP-1β Fold (100 nM vs DMSO): 1 fold
- MIP-3α Fold (100 nM vs DMSO): 1 fold
- MMP-1 Fold (100 nM vs DMSO): 2 fold
- TNF-α Fold (100 nM vs DMSO): 6 fold
- GRO-α Fold (1000 nM vs DMSO): 18 fold
- Granzyme B Fold (1000 nM vs DMSO): 4 fold
- I-TAC Fold (1000 nM vs DMSO): 2 fold
- IFN-α Fold (1000 nM vs DMSO): 3 fold
- IFN-γ Fold (1000 nM vs DMSO): 228 fold
- IL-1RA Fold (1000 nM vs DMSO): 46 fold
- IL-1β Fold (1000 nM vs DMSO): 1578 fold
- IL-6 Fold (1000 nM vs DMSO): 290 fold
- IL-8 Fold (1000 nM vs DMSO): 5 fold
- IL-10 Fold (1000 nM vs DMSO): 219 fold
- IL-12p70 Fold (1000 nM vs DMSO): 175 fold
- IL-18 Fold (1000 nM vs DMSO): 11 fold
- IL-23 Fold (1000 nM vs DMSO): 8 fold
- IP-10 Fold (1000 nM vs DMSO): 3 fold
- MCP-1 Fold (1000 nM vs DMSO): 22 fold
- MIP-1α Fold (1000 nM vs DMSO): 374 fold
- MIP-1β Fold (1000 nM vs DMSO): 340 fold
- MIP-3α Fold (1000 nM vs DMSO): 42 fold
- MMP-1 Fold (1000 nM vs DMSO): 3 fold
- TNF-α Fold (1000 nM vs DMSO): 1661 fold
- GRO-α Fold (3000 nM vs DMSO): 18 fold
- Granzyme B Fold (3000 nM vs DMSO): 4 fold
- I-TAC Fold (3000 nM vs DMSO): 2 fold
- IFN-α Fold (3000 nM vs DMSO): 3 fold
- IFN-γ Fold (3000 nM vs DMSO): 143 fold
- IL-1RA Fold (3000 nM vs DMSO): 25 fold
- IL-1β Fold (3000 nM vs DMSO): 1767 fold
- IL-6 Fold (3000 nM vs DMSO): 195 fold
- IL-8 Fold (3000 nM vs DMSO): 4 fold
- IL-10 Fold (3000 nM vs DMSO): 279 fold
- IL-12p70 Fold (3000 nM vs DMSO): 127 fold
- IL-18 Fold (3000 nM vs DMSO): 18 fold
- IL-23 Fold (3000 nM vs DMSO): 19 fold
- IP-10 Fold (3000 nM vs DMSO): 3 fold
- MCP-1 Fold (3000 nM vs DMSO): 25 fold
- MIP-1α Fold (3000 nM vs DMSO): 421 fold
- MIP-1β Fold (3000 nM vs DMSO): 240 fold
- MIP-3α Fold (3000 nM vs DMSO): 82 fold
- MMP-1 Fold (3000 nM vs DMSO): 3 fold
- TNF-α Fold (3000 nM vs DMSO): 3051 fold
- GRO-α Fold (10000 nM vs DMSO): 19 fold
- Granzyme B Fold (10000 nM vs DMSO): 3 fold
- I-TAC Fold (10000 nM vs DMSO): 1 fold
- IFN-α Fold (10000 nM vs DMSO): 2 fold
- IFN-γ Fold (10000 nM vs DMSO): 59 fold
- IL-1RA Fold (10000 nM vs DMSO): 25 fold
- IL-1β Fold (10000 nM vs DMSO): 2204 fold
- IL-6 Fold (10000 nM vs DMSO): 241 fold
- IL-8 Fold (10000 nM vs DMSO): 4 fold
- IL-10 Fold (10000 nM vs DMSO): 304 fold
- IL-12p70 Fold (10000 nM vs DMSO): 38 fold
- IL-18 Fold (10000 nM vs DMSO): 13 fold
- IL-23 Fold (10000 nM vs DMSO): 16 fold
- IP-10 Fold (10000 nM vs DMSO): 2 fold
- MCP-1 Fold (10000 nM vs DMSO): 27 fold
- MIP-1α Fold (10000 nM vs DMSO): 487 fold
- MIP-1β Fold (10000 nM vs DMSO): 196 fold
- MIP-3α Fold (10000 nM vs DMSO): 65 fold
- MMP-1 Fold (10000 nM vs DMSO): 8 fold
- TNF-α Fold (10000 nM vs DMSO): 1096 fold
